Results published in PMC11228755 (RSC Advances, 2024).
Where “and” joins values, the source holds several entries; their conditions need not be identical. Equal entries are not always repeated. Marks after values point to notes of the source that are not given here.

Legend:
[1] = test system: Salmonella typhimurium TA102; settings: positive control, 20 μg per plate, +S9
[2] = test system: Salmonella typhimurium TA97a; experiment: Ames test; settings: positive control, 50 μg per plate, −S9
[3] = test system: Salmonella typhimurium TA98; experiment: Ames test; settings: positive control, 50 μg per plate, −S9
[4] = test system: Salmonella typhimurium TA100; experiment: Ames test; settings: positive control, 1 μg per plate, −S9
[5] = test system: Salmonella typhimurium TA1535; experiment: Ames test; settings: positive control, 1 μg per plate, −S9

## Nc1ccc2cc3ccccc3cc2c1 [2-Aminoanthracene, 2-aminoanthracene]
[1]
  Number of revertants TA102: 2121 ± 21 ^e

## CN(C)c1ccc(N=NS(=O)(=O)[O-])cc1.[Na+] [Dioxone, dioxone]
[2]
  Number of revertants TA97a: 1872 ± 104 ^a
[3]
  Number of revertants TA98: 1111 ± 117 ^a

## [N-]=[N+]=[N-].[Na+] [Sodium azide, sodium azide]
[4]
  Number of revertants TA100: 1697 ± 54 ^c
[5]
  Number of revertants TA1535: 1190 ± 40 ^c and 1333 ± 53 ^c
